Measured values reported in paper PMC11877520, “Anthelmintic Potential of Conjugated Long-Chain Fatty Acids Isolated from the Bioluminescent Mushroom Neonothopanus gardneri” (Journal of Natural Products, 2025).
“Also recorded” adds a separate entry of the source. Read-outs that look alike come from different tables or passages of the source.

How the values were obtained:
[1] = test system: Schistosoma mansoni; experiment: In vitro antischistosomal assay on adult schistosomes (parasite viability by microscope); assay type: cell-based, Schistosoma mansoni (BH strain); conditions: for EC50: Schistosoma mansoni
Description: The in vitro antischistosomal potential of compounds 1–5 was evaluated at various concentrations on S. mansoni (male and female) to determine their effective concentrations at 50% (EC50). Praziquantel (PZQ) was employed as a positive control, while vehicle-treated parasites (0.5% DMSO) were a negative control. […] The S. mansoni (BH strain) life cycle was sustained by passage through Biomphalaria glabrata snails and Swiss mice at the Research Center on Neglected Diseases (Guarulhos University, SP, Brazil). Vero cells from the American Type Culture Collection (ATCC) were cultured in Dulbecco’s modified Eagle medium (DMEM) supplemented with 10% heat-inactivated fetal calf serum and 2 mM L-glutamine (Vitrocell, Campinas, SP, Brazil). C. elegans (strain N2) was maintained at 22 °C on nematode growth medium (NGM) agar seeded with Escherichia coli strain OP50, following standard protocols.[26] The in vitro antischistosomal assay followed established procedures.[27] Adult schistosomes from infected mice were exposed to test samples (0.78–50 μM) in RPMI 1640 medium supplemented with 5% heat-inactivated fetal calf serum, penicillin (100 U/mL), and streptomycin (100 μg/mL) in a 24-well culture plate. Test samples, including PZQ, were dissolved in DMSO and tested in triplicate with experiments repeated three times. A BEL Engineering microscope assessed parasite viability at 24, 48, and 72 h. Statistical analysis was conducted using GraphPad Prism 8.0. CE50 and CC50 values were determined from sigmoid dose–response curves. Selectivity indices were calculated by dividing CC50 values obtained on Vero cells by […].[30]

[2] = test system: Vero cells; experiment: Cytotoxicity on Vero cells (MTT); assay type: cell-based; conditions: for SI (male worms), selectivity index SI = CC50/EC50: Vero CC50 / S. mansoni male EC50
Description: (§1) The S. mansoni (BH strain) life cycle was sustained by passage through Biomphalaria glabrata snails and Swiss mice at the Research Center on Neglected Diseases (Guarulhos University, SP, Brazil). Vero cells from the American Type Culture Collection (ATCC) were cultured in Dulbecco’s modified Eagle medium (DMEM) supplemented with 10% heat-inactivated fetal calf serum and 2 mM L-glutamine (Vitrocell, Campinas, SP, Brazil). C. elegans (strain N2) was maintained at 22 °C on nematode growth medium (NGM) agar seeded with Escherichia coli strain OP50, following standard protocols.[26]
(§2) Cytotoxicity was assessed using a previously established method.[20],[28] Cells were plated in 96-well plates and treated with test compounds (6.25–200 μM) and doxorubicin (DXR) at 10 μM as a positive control for 72 h. Cell viability was determined using an MTT solution, and absorbance was measured at 595 nm using a microplate spectrophotometer. The assay was performed in triplicate, and the results are expressed as a percentage of the control.
(§3) Statistical analysis was conducted using GraphPad Prism 8.0. CE50 and CC50 values were determined from sigmoid dose–response curves. Selectivity indices were calculated by dividing CC50 values obtained on Vero cells by CC50 values determined on S. mansoni.[30]

[3] = Cytotoxicity on Vero cells (MTT); assay type: cell-based; conditions: chlorocebus sabaeus; Vero cells, 72 h, MTT, 6.25–200 μM tested; read-out: Vero cell CC50
Description: as §1, §2, §3

[4] = test system: Caenorhabditis elegans; experiment: Toxicity assay with C. elegans (viability by mobility and form); assay type: in vivo, Caenorhabditis elegans (strain N2); conditions: L4-stage worms, 24 h, 25 to 200 μM
Description: as §1
Toxicity assays with C. elegans were performed as previously described.[29] For 24 h, 26 L4-stage worms were exposed to samples at concentrations ranging from 25 to 200 μM, including levamisole (LVZ) at 10 μM as the positive control. Viability was assessed based on mobility and form using an inverted microscope, with experiments repeated three times.

[5] = adult female worms, in vitro, 72 h, 0.78–50 μM tested, read-out: S. mansoni female EC50
[6] = adult male worms, in vitro, 72 h, 0.78–50 μM tested, read-out: S. mansoni male EC50
[7] = adult schistosomes, ex vivo / in vitro, read-out: EC50 against S. mansoni (sex not specified)

SMILES	EC50 [1, 5] [µM]	EC50 [1, 6] [µM]	EC50 [1, 7] [µM]	SI (female worms), selectivity index SI = CC50/EC50 ([2]; Vero CC50 / S. mansoni female EC50)	SI (male worms), selectivity index SI = CC50/EC50 [2]	Toxicity to mammalian cells (in words) ([2]; Vero cells, 72 h)	CC50 at 72 h [3] [µM]	Toxicity to C. elegans (in words) [4]	Antiparasitic activity against S. mansoni (in words) ([1]; adult schistosomes, in vitro, up to 50 μM)
CCCCCCCC/C=C\[C@@H](O)[C@H](O)CCCCCC(=O)O (stereo in doubt) [Compound 3, (7R,8R,9Z)-7,8-dihydroxyoctadec-9-enoic acid]	32.6 ± 5.1	8.3 ± 2.4	< 10	>6.13	>24.09	no toxicity	> 200	did not show toxicity; also recorded: no toxicity	–
CCCCC[C@H](O)[C@@H](O)/C=C/C=C/C(=O)CCCCCC(=O)O [Compound 1, (8E,10E,12S,13S)-12,13-dihydroxy-7-oxo-octadeca-8,10-dienoic acid]	> 50	> 50	> 50	–	–	–	–	–	–
CCCCCC(=O)/C=C/C=C/[C@H](O)[C@@H](O)CCCCCC(=O)O [Compound 2, (7S,8S,9E,11E)-7,8-dihydroxy-13-oxo-octadeca-9,11-dienoic acid]	> 50	> 50	> 50	–	–	–	–	–	–
O=C(O)/C=C/CCCCCCC(=O)O [Compound 4, (2E)-dec-2-ene-1,10-dioic acid]	> 50	> 50	> 50	–	–	–	–	–	–
CC1(C)CCC(=O)[C@@]23C(=O)OC4OCC(=CC[C@@H]12)[C@H]43 (some centres unmarked) [Compound 5, marasmeno-1,15-dione]	> 50	> 50	> 50	–	–	–	–	–	no antiparasitic activity was detected
O=C(C1CCCCC1)N1CC(=O)N2CCc3ccccc3C2C1 (centres unmarked) [PZQ, Praziquantel, reference compound]	1.2 ± 0.1	0.9 ± 0.1	< 2	–	>250	–	> 200	–	–
